Among the data in US11814367B2, “Inhibitors of glycogen synthase 1 (GYS1) and methods of use thereof” (Maze Therapeutics, Inc., priority 2021, dated 2023) are IC50 values, retold here.

pIC50: −log10 of the molar value. A value given as a limit tells only on which side of the number the result lay.

Test [1] deals with hGYS1 enzyme (recombinant hGYS1/GN1 protein) (Homo sapiens (Human), UniProt P13807). Put plainly: GYS1 coupled enzyme assay (PK/LDH). It is filed as biochemical. The following applies: hGYS1/GN1 50 nM, UDP-Glucose 0.8 mM, G6P 1 mM; geometric mean of at least 2 runs.
The target in test [2] is hGYS2 enzyme (recombinant hGYS2/GN1 protein) (Homo sapiens (Human), UniProt P54840). Put plainly: GYS2 coupled enzyme assay (PK/LDH). The note with it: geometric mean of at least 2 assay runs on separate days, read-out: Avg_IC50. It is filed as biochemical. In short, it runs like this: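 Continuous PK/LDH-coupled readout of NADH loss at 340 nm over 10 min, with 200 nM hGYS2/GN1 and 2 mM each of UDP-glucose, glucose-6-phosphate and PEP, in 50 mM Tris pH 7.5 with 0.2% glycogen and 2.5% DMSO. Slopes were normalized to controls and IC50s fit to a Hill curve from duplicates.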
hGYS2 enzyme (recombinant hGYS2/GN1 protein), sequence (P54840 whole entry): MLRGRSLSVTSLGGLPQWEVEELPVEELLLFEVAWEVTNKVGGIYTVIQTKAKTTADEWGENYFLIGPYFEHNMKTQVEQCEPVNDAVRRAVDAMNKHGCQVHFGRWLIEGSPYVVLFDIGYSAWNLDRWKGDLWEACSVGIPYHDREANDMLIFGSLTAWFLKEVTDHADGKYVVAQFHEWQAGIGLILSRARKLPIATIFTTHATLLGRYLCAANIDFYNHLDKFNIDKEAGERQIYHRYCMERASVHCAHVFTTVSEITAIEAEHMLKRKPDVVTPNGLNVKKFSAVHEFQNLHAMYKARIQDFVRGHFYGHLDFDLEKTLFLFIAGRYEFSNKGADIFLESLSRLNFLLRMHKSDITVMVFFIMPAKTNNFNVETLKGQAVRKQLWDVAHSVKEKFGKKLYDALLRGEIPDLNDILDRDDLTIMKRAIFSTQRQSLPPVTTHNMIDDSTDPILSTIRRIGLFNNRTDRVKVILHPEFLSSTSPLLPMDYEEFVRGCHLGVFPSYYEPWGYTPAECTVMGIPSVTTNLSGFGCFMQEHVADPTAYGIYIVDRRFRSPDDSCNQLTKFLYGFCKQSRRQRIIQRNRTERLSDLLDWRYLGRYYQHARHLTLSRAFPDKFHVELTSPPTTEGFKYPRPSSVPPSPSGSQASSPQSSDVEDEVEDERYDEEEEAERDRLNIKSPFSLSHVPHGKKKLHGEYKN
hGYS2 enzyme (recombinant hGYS2/GN1 protein), sequence (P46976 whole entry partner): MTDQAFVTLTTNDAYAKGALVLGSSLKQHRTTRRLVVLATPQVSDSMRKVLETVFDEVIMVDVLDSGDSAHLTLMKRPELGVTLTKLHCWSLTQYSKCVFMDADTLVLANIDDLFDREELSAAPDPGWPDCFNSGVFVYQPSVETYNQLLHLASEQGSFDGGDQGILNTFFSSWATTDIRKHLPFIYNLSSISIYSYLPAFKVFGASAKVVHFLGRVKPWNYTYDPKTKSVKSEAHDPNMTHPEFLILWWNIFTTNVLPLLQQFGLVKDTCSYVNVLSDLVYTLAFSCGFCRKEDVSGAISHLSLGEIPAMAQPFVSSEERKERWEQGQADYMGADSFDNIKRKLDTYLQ

hGYS1 enzyme (recombinant hGYS1/GN1 protein), sequence (P13807 whole entry): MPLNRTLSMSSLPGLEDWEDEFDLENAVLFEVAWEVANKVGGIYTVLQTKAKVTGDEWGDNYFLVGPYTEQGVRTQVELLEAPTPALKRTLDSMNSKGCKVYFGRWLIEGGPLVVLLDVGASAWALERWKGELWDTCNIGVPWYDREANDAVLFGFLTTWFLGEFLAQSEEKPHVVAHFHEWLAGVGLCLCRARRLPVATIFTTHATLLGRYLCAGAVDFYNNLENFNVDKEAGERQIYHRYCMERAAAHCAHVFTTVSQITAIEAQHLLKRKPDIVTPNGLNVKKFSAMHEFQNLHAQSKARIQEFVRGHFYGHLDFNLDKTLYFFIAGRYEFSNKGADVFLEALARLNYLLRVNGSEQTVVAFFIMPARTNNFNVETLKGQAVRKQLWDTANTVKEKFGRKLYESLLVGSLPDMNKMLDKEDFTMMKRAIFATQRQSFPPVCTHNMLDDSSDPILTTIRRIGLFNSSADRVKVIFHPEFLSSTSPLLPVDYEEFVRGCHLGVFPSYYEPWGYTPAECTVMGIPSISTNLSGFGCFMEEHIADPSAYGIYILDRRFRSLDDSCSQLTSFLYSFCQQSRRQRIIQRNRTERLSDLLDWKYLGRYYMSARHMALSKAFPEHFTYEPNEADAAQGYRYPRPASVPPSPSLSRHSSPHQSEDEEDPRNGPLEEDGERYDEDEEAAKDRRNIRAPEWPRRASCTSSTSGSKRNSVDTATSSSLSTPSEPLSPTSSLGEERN
hGYS1 enzyme (recombinant hGYS1/GN1 protein), sequence (P46976 whole entry partner): as the sequence (P46976 whole entry partner) above

In the case of `CC(C)c1ccc([C@@H](NC(=O)[C@@H]2C[C@@H](F)CN2C(=O)C2CCC(=O)NC2)c2ccccc2)cc1` (stereo partly drawn) [Compound 58, (2S,4R)-4-fluoro-1-(6-oxopiperidine-3-carbonyl)-N-[(S)-phenyl[4-(propan-2-yl)phenyl]methyl]pyrrolidine-2-carboxamide], the pIC50 in test [1] is 6.84; in test [2] it was < 4.00.
For `CC(C)c1ccc([C@@H](NC(=O)[C@@H]2C[C@@H](F)CN2C(=O)CCc2cnccn2)c2ccccc2)cc1` [Compound 59, (2S,4R)-4-fluoro-N-[(S)-phenyl[4-(propan-2-yl)phenyl]methyl]-1-[3-(pyrazin-2-yl)propanoyl]pyrrolidine-2-carboxamide], the pIC50 in test [1] is 7.07; in test [2] it was < 4.00.
Consider `CC(C)c1ccc([C@@H](NC(=O)[C@@H]2C[C@@H](F)CN2C(=O)CCc2cncnc2)c2ccccc2)cc1` [Compound 60, (2S,4R)-4-fluoro-N-[(S)-phenyl[4-(propan-2-yl)phenyl]methyl]-1-[3-(pyrimidin-5-yl)propanoyl]pyrrolidine-2-carboxamide], for which the pIC50 is 6.73 in test [1] and < 4.00 in test [2].
The corresponding values for `COc1nn(C)cc1C(=O)N1C[C@H](F)C[C@H]1C(=O)N[C@@H](c1ccccc1)c1ccc(C(C)C)cc1` [Compound 61, (2S,4R)-4-fluoro-1-(3-methoxy-1-methyl-1H-pyrazole-4-carbonyl)-N-[(S)-phenyl[4-(propan-2-yl)phenyl]methyl]pyrrolidine-2-carboxamide] are 6.61 and < 4.00.
`Cc1nnc(CCC(=O)N2C[C@H](F)C[C@H]2C(=O)N[C@@H](c2ccccc2)c2ccc(C(C)C)cc2)s1` [Compound 62, (2S,4R)-4-fluoro-1-[3-(5-methyl-1,3,4-thiadiazol-2-yl)propanoyl]-N-[(S)-phenyl[4-(propan-2-yl)phenyl]methyl]pyrrolidine-2-carboxamide]: the pIC50 in test [1] is 7.19; in test [2] it was < 4.00.
The corresponding values for `CC(C)c1ccc([C@@H](NC(=O)[C@@H]2C[C@@H](F)CN2C(=O)Cc2cc(F)ccc2Cl)c2ccccc2)cc1` [Compound 63, (2S,4R)-1-[2-(2-chloro-5-fluorophenyl]acetyl]-4-fluoro-N-[(S)-phenyl[4-(propan-2-yl)phenyl]methyl]pyrrolidine-2-carboxamide] are 7.82 and < 4.00.
The like results for `CC(C)c1ccc([C@@H](NC(=O)[C@@H]2C[C@@H](F)CN2C(=O)C(C)c2ccccn2)c2ccccc2)cc1` (stereo partly drawn) [Compound 64, (2S,4R)-4-fluoro-N-[(S)-phenyl[4-(propan-2-yl)phenyl]methyl]-1-[2-(pyridin-2-yl)propanoyl]pyrrolidine-2-carboxamide] were, in that order, 7.09 and < 4.00.
For `CC(C)c1ccc([C@@H](NC(=O)[C@@H]2C[C@@H](F)CN2C(=O)CCc2ccccn2)c2ccccc2)cc1` [Compound 65, (2S,4R)-4-fluoro-N-[(S)-phenyl[4-(propan-2-yl)phenyl]methyl]-1-[3-(pyridin-2-yl)propanoyl]pyrrolidine-2-carboxamide], the pIC50 is 7.12 in test [1] and < 4.00 in test [2].
As to `CC(C)c1ccc([C@@H](NC(=O)[C@@H]2C[C@@H](F)CN2C(=O)CNC(=O)N(C)C)c2ccccc2)cc1` [Compound 67, (2S,4R)-1-{2-[(dimethylcarbamoyl)amino]acetyl}-4-fluoro-N-[(S)-phenyl[4-(propan-2-yl)phenyl]methyl]pyrrolidine-2-carboxamide], the pIC50 in test [1] was 8.00; in test [2], < 4.00.
Regarding `CC(C)c1ccc([C@@H](NC(=O)[C@@H]2C[C@@H](F)CN2C(=O)Cn2nnc3ccccc32)c2ccccc2)cc1` [Compound 68, (2S,4R)-1-[2-(1H-1,2,3-benzotriazol-1-yl)acetyl]-4-fluoro-N-[(S)-phenyl[4-(propan-2-yl)phenyl]methyl]pyrrolidine-2-carboxamide], the figures for the pIC50 in test [1] and in test [2] were 7.47 and < 4.00, respectively.
The like results for `Cc1nc(CC(=O)N2C[C@H](F)C[C@H]2C(=O)N[C@@H](c2ccccc2)c2ccc(C(C)C)cc2)c(C)s1` [Compound 69, (2S,4R)-1-[2-(2,5-dimethyl-1,3-thiazol-4-yl)acetyl]-4-fluoro-N-[(S)-phenyl[4-(propan-2-yl)phenyl]methyl]pyrrolidine-2-carboxamide] were, in that order, 7.44 and < 4.00.
The corresponding values for `Cc1noc(C)c1CC(=O)N1C[C@H](F)C[C@H]1C(=O)N[C@@H](c1ccccc1)c1ccc(C(C)C)cc1` [Compound 70, (2S,4R)-1-[2-(3,5-dimethyl-1,2-oxazol-4-yl)acetyl]-4-fluoro-N-[(S)-phenyl[4-(propan-2-yl)phenyl]methyl]pyrrolidine-2-carboxamide] are 7.30 and < 4.00.
On to `CC(C)c1ccc([C@@H](NC(=O)[C@@H]2C[C@@H](F)CN2C(=O)C(C)n2ccccc2=O)c2ccccc2)cc1` (stereo partly drawn) [Compound 73, (2S,4R)-4-fluoro-1-[2-(2-oxo-1,2-dihydropyridin-1-yl)propanoyl]-N-[(S)-phenyl[4-(propan-2-yl)phenyl]methyl]pyrrolidine-2-carboxamide], for which the figures for the pIC50 in test [1] and in test [2] were 6.98 and < 4.00, respectively.
For the molecule `CC(C)c1ccc([C@@H](NC(=O)[C@@H]2C[C@@H](F)CN2C(=O)CCCn2ccnc2)c2ccccc2)cc1` [Compound 75, (2S,4R)-4-fluoro-1-[4-(1H-imidazol-1-yl)butanoyl]-N-[(S)-phenyl[4-(propan-2-yl)phenyl]methyl]pyrrolidine-2-carboxamide], the pIC50 is 6.65 in test [1] and < 4.00 in test [2].
The like results for `CC(C)c1ccc([C@@H](NC(=O)[C@@H]2C[C@@H](F)CN2C(=O)CCc2cnn(C)c2)c2ccccc2)cc1` [Compound 76, (2S,4R)-4-fluoro-1-[3-(1-methyl-1H-pyrazol-4-yl)propanoyl]-N-[(S)-phenyl[4-(propan-2-yl)phenyl]methyl]pyrrolidine-2-carboxamide] were, in that order, 6.97 and < 4.00.
For the molecule `COc1cccc(CC(=O)N2C[C@H](F)C[C@H]2C(=O)N[C@@H](c2ccccc2)c2ccc(C(C)C)cc2)n1` [Compound 81, (2S,4R)-4-fluoro-1-[2-(6-methoxypyridin-2-yl)acetyl]-N-[(S)-phenyl[4-(propan-2-yl)phenyl]methyl]pyrrolidine-2-carboxamide], the figures for the pIC50 in test [1] and in test [2] were 7.60 and < 4.00, respectively.
For `Cc1cc(CC(=O)N2C[C@H](F)C[C@H]2C(=O)N[C@@H](c2ccccc2)c2ccc(C(C)C)cc2)nn1C` [Compound 83, (2S,4R)-1-[2-(1,5-dimethyl-1H-pyrazol-3-yl)acetyl]-4-fluoro-N-[(S)-phenyl[4-(propan-2-yl)phenyl]methyl]pyrrolidine-2-carboxamide], the pIC50 in test [1] was 7.82; in test [2], < 4.00.
On to `Cc1n[nH]c(C)c1CC(=O)N1C[C@H](F)C[C@H]1C(=O)N[C@@H](c1ccccc1)c1ccc(C(C)C)cc1` [Compound 84, (2S,4R)-1-[2-(3,5-dimethyl-1H-pyrazol-4-yl)acetyl]-4-fluoro-N-[(S)-phenyl[4-(propan-2-yl)phenyl]methyl]pyrrolidine-2-carboxamide], for which the pIC50 in test [1] is 8.00; in test [2], < 4.00.
